Measured values published in US20100292135A1 (priority 2005, published 2010).

Experiments:
[1] = target: T1, RecA protein (Escherichia coli, UniProt P0A7G6); assay: biochemical; format: binding, E. coli
[2] = target: T1, RecA protein; format: biochemical, E. coli
[3] = target: T1, RecA protein; conditions: cited from earlier work
[4] = system: RecA-dependent SOS induction in GY7313 cells; assay: SOS induction by MMC in permeabilized E. coli (sfi-lacZ reporter, β-galactosidase); format: cell-based; conditions: MMC-induced
[5] = system: wild type (AB1157) bacteria; assay: Development of chloramphenicol resistance (mean latency time, OD600 growth); format: cell-based; conditions: in the presence of RecA

T1 sequence (P0A7G6 2-353): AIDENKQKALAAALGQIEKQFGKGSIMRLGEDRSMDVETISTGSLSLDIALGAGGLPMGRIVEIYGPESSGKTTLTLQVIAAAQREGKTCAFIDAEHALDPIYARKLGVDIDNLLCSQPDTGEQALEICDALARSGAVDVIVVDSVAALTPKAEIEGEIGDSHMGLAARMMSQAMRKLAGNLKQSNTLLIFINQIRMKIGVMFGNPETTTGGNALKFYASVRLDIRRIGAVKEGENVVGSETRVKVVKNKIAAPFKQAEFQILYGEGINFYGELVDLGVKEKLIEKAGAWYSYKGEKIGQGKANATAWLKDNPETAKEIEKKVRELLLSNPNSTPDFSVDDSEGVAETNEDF

For `Nc1ncnc2c1ncn2[C@@H]1O[C@H](COP(=O)(O)OP(=O)(O)O)[C@@H](O)[C@H]1O` [ADP, adenosine diphosphate], which Kd [1] is on record?
Its Kd is 84 ± 27 µM.

Which “Hill coefficient nH” value [2] does the source give for `Nc1ncnc2c1ncn2[C@@H]1O[C@H](COP(=O)(O)OP(=O)(O)OP(=O)(O)O)[C@@H](O)[C@H]1O` [ATP, adenosine triphosphate] here?
Its value is 3.

What about the “Michaelis constant S0.5 for RecA and ATP” value [2] of the same molecule?
Its value is 47 µM.

And the “S0.5 for ATP, reported literature values” [3]?
Its value is 40 to 45 µM.

For `O=P(O)(O)OP(=O)(O)OC[C@H]1O[C@@H](n2cnc3c(Nc4cccc5ccccc45)ncnc32)[C@H](O)[C@@H]1O` [Compound 1, N^6-(1-Naphthyl)-Adenosine-5′-O-Diphosphate], which “inhibition of SOS induction (β-galactosidase)” value [4] is on record?
The value was “significantly inhibits SOS induction”.

For `CCOS(C)(=O)=O` [EMS], which “effect on chloramphenicol resistance development” value [5] is on record?
Its value is “speed resistance development”.

For `O[C@@H](CS)[C@@H](O)CS` [L-DTT, 1,4-dithio-L-threitol], which “inhibition of RecA ATPase activity (in words)” value [2] is on record?
Its value is “no inhibition”.

Which “effect on chloramphenicol resistance development” value [5] does the source give for `NCCCCNCCCN` [spermidine] here?
The value was “retards resistance development”.
